≈ marks a conversion by molar mass, not a printed value. Where two headings read alike, the source gives them in different places.
Key:
[1] = tested on: Per2-dLuc and Bmal1-dLuc U2OS cells; test: Real-time bioluminescence monitoring of Per2-dLuc and Bmal1-dLuc U2OS cells; format: cell-based, human; settings: for dose dependence of the enhancing effect on the amplitude of BMAL1: Bmal1-dLuc U2OS cells, 1-10 μM; for fluctuation degree (amplitude) of bioluminescence intensity / period or phase of the bioluminescence / overall bioluminescence levels: Bmal1-dLuc and Per2-dLuc U2OS cells, 2 μmol/L; for overall bioluminescence levels: vs DMSO
Experimental: Two clonal circadian reporter cell lines, Bmal1-dLuc and Per2-dLuc, were established and used in this study.[36] These two cell lines display robust cellular rhythmicity with near anti-phasic oscillation of bioluminescence expression. The lentivirus preparation, transduction of U2OS cells and selection of the knockout candidates with puromycin (at […] concentration) were performed using a previously published protoco.[37] LumiCycle (Actimetrics, Inc., Evanston, IL) detect for U2OS cells stably expressing Bmal1-dLuc and Per2-dLuc cells were seeded on an opaque 24-well plate. When the cells are full, which were treated with dexamethasone (DEX) (100 nmol/L final) for 2 h for resetting, 2 h later, the media of cells were replaced with bioluminescence recording media having DMEM culture medium (Gibco 21063029, 500 mL), 70 mL 12% FBS. Luciferin (0.1 mmol/L final) was added fresh to the bioluminescence media. Molecules at determined concentrations were supplied to the recording media (final DMSO concentration is 0.1%).

RORα [2] = target: T1, RORα (Homo sapiens, UniProt P35398); test: Luciferase reporter assay (G6Pase or FGF21 promoter) in HEK293T cells cotransfected with RORα; format: cell-based; settings: HEK293T, RORα; for luminescence of G6Pase and FGF21 luciferase reporters: vs DMSO
T1 construct: HEK293T cells co-transfected with a full-length RORα gene and a luciferase reporter gene; expressed in transfected cells; host or cells: HEK293T
T1 sequence (P35398 1-523): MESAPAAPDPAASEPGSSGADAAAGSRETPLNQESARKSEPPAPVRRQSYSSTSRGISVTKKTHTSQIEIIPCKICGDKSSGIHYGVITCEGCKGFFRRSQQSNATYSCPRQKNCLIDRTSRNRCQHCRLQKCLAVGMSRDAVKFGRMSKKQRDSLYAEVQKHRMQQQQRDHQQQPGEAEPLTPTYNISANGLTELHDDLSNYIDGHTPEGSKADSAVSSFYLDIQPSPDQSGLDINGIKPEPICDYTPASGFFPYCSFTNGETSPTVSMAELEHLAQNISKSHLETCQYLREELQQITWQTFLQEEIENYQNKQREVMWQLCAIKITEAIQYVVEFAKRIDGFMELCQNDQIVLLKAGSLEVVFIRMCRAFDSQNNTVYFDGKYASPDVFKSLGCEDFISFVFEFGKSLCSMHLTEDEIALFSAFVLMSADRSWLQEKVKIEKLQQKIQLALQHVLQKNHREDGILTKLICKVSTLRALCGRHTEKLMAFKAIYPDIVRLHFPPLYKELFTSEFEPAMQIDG
Experimental: HEK293T cells were transfected with Lipofectamine 8000 (ThermoFisher) strictly following the manufacturer’s instructions. Cotransfected HEK293T cells with RORα or RORγ plasmid and a reporter consisting of the G6Pase or FGF21 promoters upstream of a luciferase reporter gene. 500 ng plasmid DNA was transfected into each well of 24 well-plate 24 h after the transfection, DMSO or Gala-SR and SR1078 (5 µmol/L) was added and incubated for 24 h. The Lumicycle instrument detects luminescence and records the numerical value.

Kinetic solubility test = format: physicochemical; settings: water, 25 °C, kinetic from dmso stock
Excerpt: Solubility(μmol/L)=Areafiltered×DFfiltered/Areastd×DFstd×[std]×DFstd

[3] = Pharmacokinetic studies in mice (IP and IV); format: in vivo; settings: for AUC / Cmax / Tmax / half-life / concentration at 8 h / bioavailability / MRT inf: male, C57BL/6 J, mouse, plasma; for concentration at 8 h: read-out: mean plasma concentration 8 h after injection; for bioavailability: intraperitoneal, IP versus IV
RORγ = target: T2, RORγ (Homo sapiens, UniProt P51449); test: Luciferase reporter assay (G6Pase or FGF21 promoter) in HEK293T cells cotransfected with RORγ; format: cell-based; settings: 5 μmol/L; for luminescence intensity of G6Pase and FGF21 reporter genes: compared to DMSO
T2 construct: expressed in transfected cells; host or cells: HEK293T
T2 sequence (P51449 1-518): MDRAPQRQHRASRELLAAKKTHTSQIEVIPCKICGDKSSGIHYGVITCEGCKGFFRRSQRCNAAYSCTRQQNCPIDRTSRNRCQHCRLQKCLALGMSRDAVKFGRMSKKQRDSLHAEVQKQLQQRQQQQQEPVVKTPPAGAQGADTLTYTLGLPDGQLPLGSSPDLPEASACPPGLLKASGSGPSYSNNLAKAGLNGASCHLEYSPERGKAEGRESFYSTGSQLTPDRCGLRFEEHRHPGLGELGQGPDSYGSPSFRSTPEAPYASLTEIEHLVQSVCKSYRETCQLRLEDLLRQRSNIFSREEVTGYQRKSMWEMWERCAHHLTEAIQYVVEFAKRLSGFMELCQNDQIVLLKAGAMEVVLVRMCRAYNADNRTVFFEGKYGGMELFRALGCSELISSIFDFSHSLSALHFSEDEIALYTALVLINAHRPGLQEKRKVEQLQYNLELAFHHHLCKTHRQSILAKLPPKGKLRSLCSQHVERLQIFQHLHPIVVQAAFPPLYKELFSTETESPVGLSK
Excerpt: HEK293T cells were transfected with Lipofectamine 8000 (ThermoFisher) strictly following the manufacturer’s instructions. Cotransfected HEK293T cells with RORα or RORγ plasmid and a reporter consisting of the G6Pase or FGF21 promoters upstream of a luciferase reporter gene. […] The Lumicycle instrument detects luminescence and records the numerical value.

RORα [4] = target: T1, RORα; test: G6Pase and FGF21 mRNA in HEK293T cells after RORα knockdown by siRNA; format: cell-based; settings: 5 μmol/L, 24 h
Experimental: RNA from liver, periodontal tissues and cell samples was prepared as previously described. Total RNA (1 ug) was synthesized into cDNA using […] (Vazyme). mRNA expression levels were normalized to GAPDH. Relative expression levels and enrichment contents were calculated using the comparative Ct Method. Primer information is detailed in Data file S1.

[5] = ip, 10 mg/kg, 10 mg/kg IP, read-out: MRTInf_obs (mean retention time)
[6] = iv, 10 mg/kg, 10 mg/kg IV, read-out: MRTInf_obs

## O=C(Nc1ccc(C(OCO[C@@H]2O[C@H](CO)[C@H](O)[C@H](O)[C@H]2O)(C(F)(F)F)C(F)(F)F)cc1)c1ccc(C(F)(F)F)cc1 [Gala-SR]
[1]
  dose dependence of the enhancing effect on the amplitude of BMAL1: increases with the dose
  fluctuation degree (amplitude) of bioluminescence intensity: further enhanced
  period or phase of the bioluminescence: neither SR1078 nor Gala-SR treatment induced any obvious alterations
  overall bioluminescence levels: superior efficacy than SR1078
[1]; Gala-SR + β-galactosidase (205 U/mg)
  circadian rhythm amplitude, with β-glycosidase: augmentation
[1]; Gala-SR + β-galactosidase inhibitor (26 mmol/L)
  circadian rhythm amplitude, with β-glycosidase inhibitor: suppression
RORα [2]; 5 μmol/L
  expression of G6Pase and FGF21 luciferase reporter genes compared to SR1078: substantially elevated expression
  luminescence of G6Pase and FGF21 luciferase reporters: marked augmentation in the luminescence
RORα [2]; 5 μmol/L Gala-SR + β-galactosidase inhibitor, vs Gala-SR alone
  activation of luciferase reporters, with galactosidase inhibitor: significantly decreased compared to the original level
RORα [2]; 5 μmol/L Gala-SR + β-galactosidase, vs Gala-SR alone
  expression of G6Pase and FGF21 luciferase reporter genes, combined with galactosidase: significantly enhanced expression
Kinetic solubility test
  solubility kinetic at 2 h: 282 µM (≈ 176 µg/mL)
[3]; 10 mg/kg IP
  AUC/D: 607.73 kg·ng·h/mL/mg
  AUC: 6.08 µg·h/mL
  Cmax: 1.31 µg/mL
  Tmax: 30 min
  half-life: 206 min
  concentration at 8 h: 0.202 µg/mL
[3]; 10 mg/kg IV
  AUC/D: 817.62 kg·ng·h/mL/mg
  AUC: 8.18 µg·h/mL
  Cmax: 4.99 µg/mL
  Tmax: 30 min
  half-life: 149 min
[3]; 10 mg/kg
  bioavailability: ~74.3%
[3]; [5]
  MRT inf: 270 min
[3]; [6]
  MRT inf: 178 min
RORγ
  difference between Gala-SR and SR1078 in RORγ reporter luminescence: no significant difference
  luminescence intensity of G6Pase and FGF21 reporter genes: significantly enhanced the luminescence intensity
RORα [4]
  activation of G6Pase and FGF21 transcription after RORα knockdown: markedly hampered the activation

## O=C(Nc1ccc(C(O)(C(F)(F)F)C(F)(F)F)cc1)c1ccc(C(F)(F)F)cc1 [SR1078, reference compound]
[1]
  dose dependence of the enhancing effect on the amplitude of BMAL1: difficult to further promote its efficacy
  fluctuation degree (amplitude) of bioluminescence intensity: significant augmentation
  period or phase of the bioluminescence: neither SR1078 nor Gala-SR treatment induced any obvious alterations
  overall bioluminescence levels: significantly elevated
RORα [2]; 5 μmol/L
  luminescence of G6Pase and FGF21 luciferase reporters: marked augmentation in the luminescence
Kinetic solubility test
  solubility kinetic at 2 h: 4.15 µM (≈ 1.79 µg/mL)
[3]; 10 mg/kg IP
  AUC/D: 190.962 kg·ng·h/mL/mg
  AUC: 1.91 µg·h/mL
  Cmax: 1.81 µg/mL
  Tmax: 30 min
  half-life: 58.2 min
  concentration at 8 h: 0.00296 µg/mL
[3]; 10 mg/kg IP, 10 mg/kg
  MRTInf_obs (mean retention time): 71.64 min
[3]; 10 mg/kg IV
  AUC/D: 254.24 kg·ng·h/mL/mg
  AUC: 2.54 µg·h/mL
  Cmax: 7.13 µg/mL
  Tmax: 30 min
  half-life: 58.8 min
[3]; 10 mg/kg
  bioavailability: ~75.1%
[3]; [5]
  MRT inf: 71.4 min
[3]; [6]
  MRT inf: 29.2 min
RORγ
  luminescence intensity of G6Pase and FGF21 reporter genes: significantly enhanced the luminescence intensity
RORα [4]
  activation of G6Pase and FGF21 transcription after RORα knockdown: markedly hampered the activation

From article PMC12575728, “Galactose-modified small molecule modulator targets RORα to enhance circadian rhythm and alleviate periodontitis-associated alveolar bone loss” (Bone Research, 2025)
